# According to patent US20210330611A1, “THERAPY FOR NEUROLOGICAL DISEASES/DISORDERS” (priority 2020, published 2021):
# Structures can show the parent of a compound that is named as a salt. Where two headings read alike, the source gives them in different places.
# Tests used:
# [1] = test system: LPS-induced microglia activation; test: Image-based assay of LPS-induced microglia activation (HTS and dose response); assay type: cell-based, rat; details: for inhibition at 10 µM: read-out: LPS % inhibition
# [2] = test system: primary rat microglia; test: Cell toxicity (dead cells, size <150 μm2) in coated fibrin (cFib) assay;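 note: share of dead cells sized under 150 µm2 at 10 µM in fibrin-stimulated microglia HTS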
# [3] = test system: fibrin-induced microglia activation; test: Image-based assay of fibrin-induced microglia activation (HTS and dose response); assay type: cell-based, rat; details: for inhibition at 10 µM: read-out: Fibrin % inhibition
# [4] = test system: fibrin- and LPS-induced microglia activation; test: cells; assay type: cell-based, rat
# [5] = test system: primary rat microglia; test: Cell toxicity (dead cells, size <150 μm2) in LPS assay
# [6] = Rattus norvegicus, Microglia, 48 h, primary microglia HTS, LPS stimulation, activation = cell size >800 μm2
# [7] = primary microglia HTS, fibrin stimulation, toxicity = cell size <150 μm2
# [8] = Rattus norvegicus, Microglia, primary microglia HTS, fibrin stimulation, activation = cell size >800 μm2
# [9] = quadrant by fibrin and LPS inhibition in HTS of 1907 compounds
# [10] = primary microglia HTS, LPS stimulation, toxicity = cell size <150 μm2
# [11] = Rattus norvegicus, Microglia, 48 h, primary microglia HTS, LPS stimulation, increased cell size (>800 μm^2) as marker of activation
# [12] = primary microglia HTS, fibrin stimulation, decreased size (<150 μm^2) as marker of toxicity
# [13] = Rattus norvegicus, Microglia, primary microglia HTS, fibrin stimulation, increased cell size (>800 μm^2) as marker of activation
# [14] = primary microglia HTS, LPS stimulation, decreased size (<150 μm^2) as marker of toxicity
# [15] = Rattus norvegicus, Microglia, primary microglia HTS, 10 μM, LPS-stimulated, cell size >800 μm^2 as marker of activation
# [16] = primary microglia HTS, 10 μM, fibrin assay, cell size <150 μm^2 as marker of toxicity
# [17] = Rattus norvegicus, Microglia, primary microglia HTS, 10 μM, fibrin-stimulated, cell size >800 μm^2 as marker of activation
# [18] = HTS of 1907 compounds, quadrant by fibrin and LPS inhibition
# [19] = primary microglia HTS, 10 μM, LPS assay, cell size <150 μm^2 as marker of toxicity
# [20] = primary microglia HTS, LPS stimulation, increased cell size (>800 μm^2) as marker of activation
# [21] = primary microglia HTS, fibrin stimulation, increased cell size (>800 μm^2) as marker of activation
# [22] = primary HTS, 10 μM, fibrin assay, dead cells size <150 μm2
# [23] = primary HTS, 10 μM, LPS assay, dead cells size <150 μm2
compound,measurement,setting,value
CN1CCc2cc3c(cc2C1O)OCO3 (centres unmarked) [Hydrastinine Hydrochloride],inhibition at 10 µM,[1]; [6],22%
same,Fibrin % cell toxicity,[2]; [7],1%
same,inhibition at 10 µM,[3]; [8],0%
same,Quadrant (FIG. 5b),[4]; [9],Q4
same,LPS % cell toxicity,[5]; [10],0%
CCn1cc(C(=O)O)c(=O)c2cc(F)c(N3CCNCC3)nc21 [Enoxacin],inhibition at 10 µM,[1]; [11],119%
same,Fibrin % cell toxicity,[2]; [12],84%
same,inhibition at 10 µM,[3]; [13],113%
same,Quadrant (FIG. 5b),[4]; [9],Q2
same,LPS % cell toxicity,[5]; [14],12%
CN1C(=O)CC(C)(c2ccccc2)C1=O (centres unmarked) [Methsuximide],inhibition at 10 µM,[1]; [11],19%
same,Fibrin % cell toxicity,[2]; [12],0%
same,inhibition at 10 µM,[3]; [13],-39%
same,Quadrant (FIG. 5b),[4]; [9],Q4
same,LPS % cell toxicity,[5]; [14],0%
Nc1ccc(O)c(C(=O)O)c1 [Mesalazine],inhibition at 10 µM,[1]; [11],19%
same,Fibrin % cell toxicity,[2]; [12],1%
same,inhibition at 10 µM,[3]; [13],9%
same,Quadrant (FIG. 5b),[4]; [9],Q4
same,LPS % cell toxicity,[5]; [14],0%
CCCOc1ccccc1-c1nc2nn[nH]c2c(=O)[nH]1 [Zaprinast],inhibition at 10 µM,[1]; [15],13%
same,Fibrin % cell toxicity,[2]; [16],1%
same,inhibition at 10 µM,[3]; [17],-34%
same,Quadrant (FIG. 5b),[4]; [18],Q4
same,LPS % cell toxicity,[5]; [19],0%
O=c1cc[nH]c(=O)[nH]1 [Uracil],inhibition at 10 µM,[1]; [15],11%
same,Fibrin % cell toxicity,[2]; [16],0%
same,inhibition at 10 µM,[3]; [17],3%
same,Quadrant (FIG. 5b),[4]; [18],Q4
same,LPS % cell toxicity,[5]; [19],0%
CC(c1cc2ccccc2s1)N(O)C(N)=O (centres unmarked) [Zileuton],inhibition at 10 µM,[1]; [15],21%
same,Fibrin % cell toxicity,[2]; [16],0%
same,inhibition at 10 µM,[3]; [17],-12%
same,Quadrant (FIG. 5b),[4]; [18],Q4
same,LPS % cell toxicity,[5]; [19],0%
COC(=O)C[C@](O)(CCCC(C)(C)O)C(=O)O[C@@H]1C(OC)=C[C@]23CCCN2CCc2cc4c(cc2[C@H]13)OCO4 [Homoharringtonie],LPS % inhibition,[1]; [20],106%
same,Fibrin % cell toxicity,[2]; [12],90%
same,Fibrin % inhibition,[3]; [21],106%
same,Quadrant (FIG. 5b),[4]; [9],Q2
same,LPS % cell toxicity,[5]; [14],67%
Tyrothricin [reference compound],IC50,"[1]; Table 1, dose response 0.001-20 μM, triplicates, primary rat microglia, 48 h, read-out: LPS IC50",500 nM
same,IC50,"[1]; dose response, LPS-induced microglia activation, read-out: LPS IC50",500 nM
same,LPS % inhibition,[1]; [20],102%
same,Fibrin % cell toxicity,[2]; [12],2%
same,IC50,"[3]; Table 1, dose response 0.001-20 μM, triplicates, primary rat microglia, 48 h, read-out: Fibrin IC50",3000 nM
same,IC50,"[3]; dose response, fibrin-induced microglia activation, read-out: Fibrin IC50",3000 nM
same,Fibrin % inhibition,[3]; [21],89%
same,Hit,[4]; HTS hit classification,HIT (Hits were defined as molecules that exhibited greater than 50% inhibition of either fibrin or LPS activation)
same,Quadrant (FIG. 5b),"[4]; Table 1, screen at 10 μM",Q2
same,Quadrant (FIG. 5b),[4]; [9],Q2
same,LPS % cell toxicity,[5]; [14],2%
CCNC(=O)[C@@H]1CCCN1C(=O)[C@H](CCCNC(=N)N)NC(=O)[C@H](CC(C)C)NC(=O)[C@@H](CC(C)C)NC(=O)[C@H](Cc1ccc(O)cc1)NC(=O)[C@H](CO)NC(=O)[C@H](Cc1c[nH]c2ccccc12)NC(=O)[C@H](Cc1c[nH]cn1)NC(=O)[C@@H]1CCC(=O)N1 [Leuprolide],LPS % inhibition,"[1]; primary microglia HTS, LPS stimulation, activation = cell size >800 μm2",−3%
same,Fibrin % cell toxicity,[2]; [7],1%
same,Fibrin % inhibition,"[3]; primary microglia HTS, fibrin stimulation, activation = cell size >800 μm2",5%
same,Quadrant (FIG. 5b),[4]; [9],Q4
same,LPS % cell toxicity,[5]; [10],−1%
O=C1O[C@H](CO)[C@@H](O)[C@H](O)[C@H]1O [Gluconolactone],inhibition at 10 µM,[1]; [6],17%
same,Fibrin % cell toxicity,[2]; [7],0%
same,inhibition at 10 µM,[3]; [8],-1%
same,Quadrant (FIG. 5b),[4]; [9],Q4
same,LPS % cell toxicity,[5]; [10],0%
Cc1ccnc2c1NC(=O)c1cccnc1N2C1CC1 [Nevirapine],inhibition at 10 µM,[1]; [11],15%
same,Fibrin % cell toxicity,[2]; [12],0%
same,inhibition at 10 µM,[3]; [13],3%
same,Quadrant (FIG. 5b),[4]; [9],Q4
same,LPS % cell toxicity,[5]; [14],0%
CCCCOC(=O)c1ccc(O)cc1 [Butylparaben],inhibition at 10 µM,"[1]; Rattus norvegicus, Microglia, primary HTS, 10 μM, LPS-stimulated primary microglia",20%
same,Fibrin % cell toxicity,[2]; [22],1%
same,inhibition at 10 µM,"[3]; Rattus norvegicus, Microglia, primary HTS, 10 μM, fibrin-stimulated primary microglia",-16%
same,Quadrant (FIG. 5b),"[4]; primary HTS, 10 μM",Q4
same,LPS % cell toxicity,[5]; [23],0%
CC1=CC(=O)c2ccccc2C1=O [Menadione],inhibition at 10 µM,[1]; [11],123%
same,Fibrin % cell toxicity,[2]; [12],87%
same,inhibition at 10 µM,[3]; [13],113%
same,Quadrant (FIG. 5b),[4]; [9],Q2
same,LPS % cell toxicity,[5]; [14],62%
"CC(=O)OCC(=O)[C@@]1(O)CC[C@H]2[C@@H]3CCC4=CC(=O)CC[C@]4(C)[C@H]3[C@@H](O)C[C@@]21C [Hydrocortisone acetate, reference compound]",inhibition at 10 µM,[1]; [11],89%
same,IC50,"[1]; Rattus norvegicus, Microglia, Table 7, read-out: LPS_IC50",17 nM
same,Fibrin % cell toxicity,[2]; [12],4%
same,IC50,"[3]; Rattus norvegicus, Microglia, Table 7, read-out: fib_IC50",10 nM
same,inhibition at 10 µM,[3]; [13],112%
same,Quadrant (FIG. 5b),"[4]; Table 2, screen at 10 μM",Q2
same,Activity,"[4]; Table 7, fib = fibrin, LPS, tox = toxicity",fib/LPS
same,Quadrant (FIG. 5b),[4]; [9],Q2
same,LPS % cell toxicity,[5]; [14],4%
NS(=O)(=O)c1cc2c(cc1C(F)(F)F)NCNS2(=O)=O [Hydroflumethiazide],inhibition at 10 µM,[1]; [6],11%
same,Fibrin % cell toxicity,[2]; [7],0%
same,inhibition at 10 µM,[3]; [8],-9%
same,Quadrant (FIG. 5b),[4]; [9],Q4
same,LPS % cell toxicity,[5]; [10],0%
CCCCC(CC)CN1CN(CC(CC)CCCC)CC(C)(N)C1 (centres unmarked) [Hexetidine],inhibition at 10 µM,[1]; [6],19%
same,Fibrin % cell toxicity,[2]; [7],1%
same,inhibition at 10 µM,[3]; [8],-85%
same,Quadrant (FIG. 5b),[4]; [9],Q4
same,LPS % cell toxicity,[5]; [10],0%
C[N+](C)(C)CC(O)CC(=O)O.[Cl-] (centres unmarked),LPS % inhibition,"[1]; primary HTS, 10 μM, LPS-stimulated primary microglia",1%
same,Fibrin % cell toxicity,[2]; [22],1%
same,Fibrin % inhibition,"[3]; primary HTS, 10 μM, fibrin-stimulated primary microglia",−23%
same,Quadrant (FIG. 5b),"[4]; primary HTS, 10 μM",Q4
same,LPS % cell toxicity,[5]; [23],0%
CC1(C)S[C@@H]2[C@H](N3C(=O)[C@@H](c4ccccc4)NC3(C)C)C(=O)N2[C@H]1C(=O)O [Hetacillin Potassium],inhibition at 10 µM,[1]; [6],15%
same,Fibrin % cell toxicity,[2]; [7],0%
same,inhibition at 10 µM,[3]; [8],-15%
same,Quadrant (FIG. 5b),[4]; [9],Q4
same,LPS % cell toxicity,[5]; [10],1%
Sucralfate,LPS % inhibition,"[1]; primary microglia HTS, 10 μM, LPS-stimulated, cell size >800 μm^2 as marker of activation",22%
same,Fibrin % cell toxicity,[2]; [16],1%
same,Fibrin % inhibition,"[3]; primary microglia HTS, 10 μM, fibrin-stimulated, cell size >800 μm^2 as marker of activation",−35%
same,Quadrant (FIG. 5b),[4]; [18],Q4
same,LPS % cell toxicity,[5]; [19],0%
CC(C)[C@H](N)C(=O)OCCOCn1cnc2c(=O)[nH]c(N)nc21 [Valaciclovir],inhibition at 10 µM,[1]; [15],15%
same,Fibrin % cell toxicity,[2]; [16],1%
same,inhibition at 10 µM,[3]; [17],12%
same,Quadrant (FIG. 5b),[4]; [18],Q4
same,LPS % cell toxicity,[5]; [19],0%
COP(=O)(OC)C(O)C(Cl)(Cl)Cl (centres unmarked) [Metrifonate],inhibition at 10 µM,[1]; [11],8%
same,Fibrin % cell toxicity,[2]; [12],0%
same,inhibition at 10 µM,[3]; [13],-34%
same,Quadrant (FIG. 5b),[4]; [9],Q4
same,LPS % cell toxicity,[5]; [14],0%
COC(=O)Nc1nc2ccc([S+]([O-])c3ccccc3)cc2[nH]1 (centres unmarked) [Oxfendazole],inhibition at 10 µM,[1]; [11],20%
same,Fibrin % cell toxicity,[2]; [12],0%
same,inhibition at 10 µM,[3]; [13],10%
same,Quadrant (FIG. 5b),[4]; [9],Q4
same,LPS % cell toxicity,[5]; [14],1%
